Data set [1] has as its system LPS-induced TNF-α production. Briefly: Sub-lethal LPS-induced endotoxemia in mice, serum TNF-α by ELISA. Type of data set: in vivo. The note with it: for inhibition of LPS-induced TNF-α production (reference agents, previously shown): mice, dose not stated. How it is done: FIGS. 5A-5E show representative dose response curves for the inhibition of LPS induced TNF-α production in vivo in a murine model of sub-lethal endotoxemia. In each experiment, groups of six mice received pre-treatment with the five compounds (FIG. 5A: (II); FIG. 5B: (III); FIG. 5C: (V); FIG. 5D: (I′) and FIG. 5E: (IV)) at various doses, via either the oral route (circles) or subcutaneous route (triangles). 30-60 mins later, animals were challenged with LPS via the intraperitoneal route, and serum was prepared from a terminal bleed 3 hours later. The level of TNF-α in the blood was measured by ELISA, and the degree of inhibition of LPS-induced TNF-α production (calculated as the concentration of TNF-α in mice exposed to LPS minus the concentration of TNF-α in mice which received a sham exposure to endotoxin-free PBS) is shown on the Y-axis of each graph as the mean of six animals, with whiskers representing SEMs. The concentration of TNF-α in mice receiving LPS but no BSCI treatment was typically 5,000 to 6,000 pg/ml on average (compared to <10 pg/ml in unchallenged mice). The ED50 was estimated by linear interpolation of the presented graphs. The X-axis of each graph represents the dose of each compound administered to each mouse in the group in units of mg (1E-07 to 1).
In this assay, mice are given a non-specific pro-inflammatory challenge using bacterial endotoxin (LPS), and the extent of the systemic inflammatory response (measured by serum levels of the central pro-inflammatory cytokine TNF-α, which is essentially absent from the blood under normal conditions, but is rapidly elevated in response to a wide range of inflammatory stimuli). We have selected this model even though it is not, itself, a particularly close model of any human inflammatory disease condition, but because TNF-α is known to be important in very many diseases (including rheumatoid arthritis, autoimmune disorders, Crohn's Disease, atherosclerosis, asthma and many more). Consequently, agents which suppress TNF-α production are already used clinically (e.g. Enbrel™ and other anti-TNF-α antibody products) to treat a wide range of such diseases.
Mice (in groups of 6) were pretreated with various doses of each compound, either by the subcutaneous route 30 mins prior to LPS challenge, or by the oral route (via gavage) 60 mins prior to LPS. The mice were then challenged with an intraperitoneal injection of 750 μg of bacterial LPS and sacrificed 3 hours later. Serum was prepared from a terminal bleed by cardiac puncture, and the concentration of TNF-α is determined by ELISA (R&D Systems). In each experiment, a group of 6 mice receive no LPS to act as a negative control, and a second group receive only LPS (with no candidate inhibitor). […]
On the technique in general: ELISA stands for enzyme-linked immunosorbent assay.

Data set [2] relates to leukocytes in BAL fluid. Briefly: Ovalbumin-induced lung inflammation model of asthma, cell counts in BAL fluid. Type of data set: in vivo, Brown Norway rats. The note with it: 30 mg/kg daily via the oral route. An excerpt:
Bars represent mean cell counts, shown on the Y axis in units of 10^6 cells, for groups of […] with whiskers representing SEM; * p<0.01 versus ‘sensitised’ using Student's unpaired t-test assuming equal variance, with two tails). The horizontal line represents the average number of leukocytes present in BAL fluid from the lungs of unchallenged rats. All rats in the remaining three groups received the same sensitisation and challenge regimen, but were either treated with vehicle only (‘Sensitised’), or with compound (I′) at 0.3 mg/kg bodyweight or with monteleukast (‘Singulair™’) at 30 mg/kg bodyweight, all administered daily by oral gavage.
Adult Brown Norway rats (200-300 g body weight; n=10 per group) were sensitised by a single intraperitoneal injection of 0.1 mg Ovalbumin on day 0. Each rat then received an intratracheal challenge with a solution of 1% ovalbumin (w/v) on day 8, and with 2% ovalbumin (w/v) on days 15, 18 and 21. The animals were then sacrificed 3 hours after the final challenge on day 21. […]
On sacrifice, total lung leukocyate recruitment was assessed by performing a broncheoalveolar lavage (BAL) using 4 lots of 3 ml sterile phosphate-buffered saline introduced through a tracheal cannula. For each animal, the BAL washes were combined, and the total cell population counted (using a haemocytometer). […]

The nature of data set [3]: Pharmacokinetics following a single dose in rat (1 mg/kg iv, 3 mg/kg oral), LC-MS/MS, one-compartment model. Type of data set: in vivo. Particulars: for bioavailability / clearance / Vd / half-life: plasma; for bioavailability: 3 mg/kg oral in 1% CMC vs 1 mg/kg iv, one-compartment model, read-out: F (%) oral bioavailability; for clearance / Vd / half-life: iv, 1 mg/kg; for Vd: read-out: Vss (L/kg) volume of distribution; for AUC(0-t): blood, single oral dose 3 mg/kg in 1% CMC, Tables 7-9, read-out: Exposure (min · ng/ml), oral exposure AUC 0-t (converted). The protocol:
Compounds were administered as a single dose (either 1 mg/kg bodyweight in 5% DMSO via the intravenous route or 3 mg/kg in 1% carboxymethylcellulose via the oral route) to three adult rats (using different rats for each compound and each route of administration).
Blood was then sampled at various time points (including just prior to dose administration) out to 24 hrs post dose, and the level of the various compounds was assessed using a validated LC-MS/MS assay. Briefly, 3-5 μl of the deproteinised sample was applied to a Waters Atlantis (C18 20×2.1 mm, 3 μm bead size) reverse phase chromatography column equilibrated in 0.1% formic acid in 95:5 water:actetonitrile. Over 3.5 minutes bound material was gradient eluted reaching 0.1% formic acid in 5:95 water:acetonitrile, followed by a step gradient back to 0.1% formic acid in 95:5 water:acetonitrile. The column eluent was then directed to an Applied Biosystems API 4000/3200 QTrap MS/MS mass spectrometer, with a TurboIonspray™ ion source operating in positive ion mode. The interface temperature was set at 650° C., with a 40 ms dwell time for each MRM transition, monitoring the following ions:
The internal standard in each determination was the related compound (S)-3-(2′,2′-dimethyl-propanoylamino)-caprolactam, which was spiked into the sample prior to deproteinization. The lower limit of quantitation (LLOQ) for this assay was 2.4 ng/ml for each compound except (I′), where it was 38.1 ng/ml.
Following LC-MS/MS analysis of each collected sample, the pharmacokinetic disposition of the compound was modelled using Kinetica software, a well known software package for such applications.
Compounds (VI) and (VII) were subject to pharmacokinetic analysis in rat using exactly the same protocols previous applied for compounds (I) through (V) in example 1.
We therefore subjected (VIII) to pharmacokinetic analysis in rat using exactly the same protocols previous applied for compounds (I′) through (VII) in examples 1 and 7.
The isolated (R)-enantiomer of (I) was therefore synthesised (exactly as described herein for the isolated (S)-enantiomer, but replacing the (S)-ornithine starting material with commercially available (R)-ornithine of high stereochemical purity), and the PK properties of this agent, in rat, was determined using the identical methodology described above (see Examples 1, 7 and 8).

Data set [4] in a line: Identification of the primary metabolites in pooled rat urine by LC-MS-MS. Type of data set: in vivo. Particulars: single oral dose 3 mg/kg in 1% CMC, pooled urine over 24 hrs, qualitative. The protocol: (§1) Urine was collected from rats exposed to a single oral dose (3 mg/kg in 1% CMC) of each compound over a 24 hour period in metabolic cages. The pooled urine sample was then subjected to full scan mass spectral analysis, using the same LC-MS conditions as described in example 1 above. Further MS-MS analysis of the product ions was then performed, and likely fragmentations/re-arrangements assigned from the publicly available Metabolite ID database.
For the major metabolites, the assigned structures were confirmed by synthesis of authentic samples, using methods well known in the art, which were subject to LC-MS-MS analysis under the same conditions as the urine samples.
Note that metabolite ID studies provide only qualitative estimates of the relative amounts of the different metabolites present, and separately validated assays with appropriate internal standards would be required to quantitate each metabolite species.

Data set [5] in a line: Distribution of unchanged compound into tissues and urine 24 hrs after a single dose in rat. Type of data set: in vivo. How it is done:
as §1
To provide a quantitative estimate of the degree of metabolism suffered by each of the compounds tested, the amount of unchanged parent compound in urine was measured using the same validated LC-MS assay described in example 1, using (S)-3-(2′,2′-dimethylpropanoylamino)-caprolactam as an internal standard. In addition, the level of compounds in various target tissues was also determined.

Data set [6] is described as follows: Solubility as observed (water, dosing vehicle). Particulars: 5% DMSO in saline. Type of data set: physicochemical.
Data set [7] can be described thus: Stability in serum in vitro. Type of data set: in vitro ADME. The note with it: human serum; 37° C. An excerpt: As an approach to identifying such stable analogs, various derivatives of (S)-3-(undec-10-enoyl)-aminoglutarimide have been tested for their stability in serum.
Data set [8] deals with chemokine-induced migration. The note with it: read-out: ED50 inhibition of chemokine-induced migration in vitro; cited from earlier work.
Where [9] appears, read: intravenous dosing 1 mg/kg, averaged across three rats, read-out: t1/2 (mins) dominant plasma half-life.

The values below come from patent publication US20150141460A1, “Anti-inflammatory Compositions” (Cambridge Enterprise Limited, priority 2007, published 2015).

Read-outs that look alike come from different tables or passages of the source.

For `O=C1CCC(N2C(=O)c3ccccc3C2=O)C(=O)N1` (stereo not drawn) [thalidomide], the “inhibition of LPS-induced TNF-α production (reference agents, previously shown)” value in data set [1] is given as “about 60%”.

Turning to `CC(C)(O)c1ccccc1CC[C@@H](SCC1(CC(=O)O)CC1)c1cccc(/C=C/c2ccc3ccc(Cl)cc3n2)c1` [monteleukast], in data set [2], the “effect on the number of leukocytes in the BAL washes” value is recorded as “significantly reduced the number of leukocytes in the BAL washes”.

Take `CC1(C(=O)N[C@H]2CCCCNC2=O)CCCCC1` [(III), 3-(1′-methylcyclohexylcarbonylamino)-caprolactam]: in data set [3] (averaged across three rats), the bioavailability was found to be 5%, the clearance was 55 mL/min/kg and the Vd worked out at 0.6 L/kg. Further, the half-life in data set [3] (setting [9]) worked out at 11 min. For the same molecule, the “major metabolites / route of metabolism detected in urine” value in data set [4] is “cytochrome P450-mediated hydroxylation”.

`CC(C)(C)S(=O)(=O)N[C@H]1CCCCNC1=O` [(IV), 3-(1′,1′-dimethylethylsulfonylamino)-caprolactam]: in data set [4], the “major metabolites / route of metabolism detected in urine” value is given as “the major metabolite could not be identified”. For the same molecule, the “Urine (ng/ml) unchanged parent compound” value in data set [5] (24 hrs after a single oral dose 3 mg/kg in 1% CMC) came out at 1010 ng/mL. Moreover, the “unchanged parent compound recovered in urine, % of the injected dose” value in data set [5] (single oral dose 3 mg/kg in 1% CMC, 24 hrs) is given as “less than 10%”.

Regarding `CCCCCCCCCCC(C)(C)C(=O)NC1CCCNC1=O` (stereo not drawn) [Compound (VI), 3-(2′,2′-dimethyldodecanoylamino)-tetrahydropyridin-2-one], the “solubility in iv dosing vehicle” value in data set [6] is on record as “completely insoluble”. Moreover, the AUC(0-t) in data set [3] was 183 ng·h/mL. Further, in data set [3] (averaged across three rats), the bioavailability was found to be 16%, the clearance stood at 40.3 mL/min/kg and the Vd was found to be 1.95 L/kg. Further, in data set [3] (setting [9]), the half-life came out at 46 min. Moreover, the half-life in data set [3] (read-out: plasma half-life) was under 60 min.

Take `C=CCCCCCCCCC(=O)[C@@H]1CCCNC1=O` [(S)-3-(undec-10-enoyl)-tetrahydropyridin-2-one]: in data set [7], the “time completely stable in serum” value was “at least 7 days”.

With `O=C1NCCCC1NC(=O)C12CC3CC(CC(C3)C1)C2` (stereo not drawn) [(VII), 3-(adamanatane-1-carbonylamino)-tetrahydropyridin-2-one], the AUC(0-t) in data set [3] is 542 ng·h/mL. In data set [3] (averaged across three rats), the bioavailability amounted to 35%, the clearance worked out at 31.1 mL/min/kg and the Vd was 0.7 L/kg. For the same molecule, in data set [3] (setting [9]), the half-life came out at 20 min. In data set [3] (read-out: plasma half-life), the half-life was under 60 min.

For `C[C@@H]1C[C@H]2[C@@H]3CCC4=CC(=O)C=C[C@]4(C)[C@@]3(F)[C@@H](O)C[C@]2(C)[C@@]1(O)C(=O)CO` [dexamethasone], the “inhibition of LPS-induced TNF-α production (reference agents, previously shown)” value in data set [1] was “at least 90%”.

On to `C=CCCCCCCCCC(=O)N[C@H]1CCC(=O)NC1=O` [NR58,4, (S)-3-(undec-10-enoyl)-aminoglutarimide], for which the “fold less potent in vivo than 3-(2′,2′-dimethylpropanoylamino)-tetrahydropyridin-2-one” value in data set [1] (models of acute inflammation such as LPS-induced endotoxemia) was “at least 250 fold”. In addition, the EC50 in data set [8] is 5 nM.

The term bioavailability denotes dose-corrected exposure relative to a reference, in per cent.
